Experimental data from paper PMC10537538, “Preclinical Investigation of a Lipoglycopeptide Dry Powder Inhalation Therapy for the Treatment of Pulmonary MRSA Infection” (Pharmaceutics, 2023).
Structures can show the parent of a compound that is named as a salt. Where two headings read alike, the source gives them in different places.

Legend:
MSSA ATCC 29213 = assay: MIC by CLSI broth microdilution, MSSA; assay type: cell-based; conditions: Staphylococcus aureus, read-out: MSSA MIC
Source text: (§1) In Vitro Susceptibility. Clinical and Laboratory Standards Institute (CLSI) guidelines were followed for the determination of the minimum inhibitory concentration (MIC), using cation-adjusted Mueller Hinton broth microdilution at a starting inoculum level of 5 × 10^5 colony forming units (CFUs) per mL [24, 25]. MIC was read by optical density on a BioTek Synergy H1 plate reader (BioTek, Winooski, VT, USA) at 595 nm. Strains used were MRSA ATCC BAA-1556 (USA300, SCCmecIV, pvl^+) and MSSA ATCC 29213 (American Type Culture Collection, Manassas, VA, USA). MIC data are reported as a range to reflect the fact that the value is determined using step dilution.

[1] = system: MRSA ATCC BAA-1556 (USA300); assay: MIC by CLSI broth microdilution, MRSA; assay type: cell-based, Staphylococcus aureus; conditions: for MIC: Staphylococcus aureus, read-out: MRSA MIC
Source text: as §1

[2] = cited from earlier work

SMILES: CCCCCCCCCCNC(=O)CN[C@@]1(C)C[C@H](O[C@H]2[C@H](Oc3c4cc5cc3Oc3ccc(cc3Cl)[C@@H](O)[C@@H](NC(=O)[C@@H](CC(C)C)NC)C(=O)N[C@@H](CC(N)=O)C(=O)N[C@H]5C(=O)N[C@H]3C(=O)N[C@H](C(=O)N[C@H](C(=O)O)c5cc(O)cc(O)c5-c5cc3ccc5O)[C@H](O)c3ccc(c(Cl)c3)O4)O[C@H](CO)[C@@H](O)[C@@H]2O)O[C@@H](C)[C@H]1O [RV94, N^van-2-amino-N-decylacetamide vancomycin]
- MIC (MSSA ATCC 29213; ATCC 29213, CLSI): 0.031 to 0.063 µg/mL
- potency relative to vancomycin (fold more potent) ([1]; MIC, MSSA and MRSA isolates): ca. 15 fold
- MIC ([1]; ATCC BAA-1556 (USA300), CLSI): 0.031 to 0.063 µg/mL
- pH needed to dissolve drug substance: > 9
- lung half-life, nebulized form ([2]; rat, in vivo, inhaled or intranasal): approximately 4.5 days

SMILES: CN[C@H](CC(C)C)C(=O)N[C@H]1C(=O)N[C@@H](CC(N)=O)C(=O)N[C@H]2C(=O)N[C@H]3C(=O)N[C@H](C(=O)N[C@H](C(=O)O)c4cc(O)cc(O)c4-c4cc3ccc4O)[C@H](O)c3ccc(c(Cl)c3)Oc3cc2cc(c3O[C@@H]2O[C@H](CO)[C@@H](O)[C@H](O)[C@H]2O[C@H]2C[C@](C)(N)[C@H](O)[C@H](C)O2)Oc2ccc(cc2Cl)[C@H]1O [Vancomycin, Vancomycin HCl, reference compound]
- MIC (MSSA ATCC 29213): 0.5 to 1 µg/mL
- MIC [1]: 0.5 to 2 µg/mL

SMILES: CCCCCCCCCCNCCN[C@@]1(C)C[C@H](O[C@H]2[C@H](Oc3c4cc5cc3Oc3ccc(cc3Cl)[C@@H](O)[C@@H](NC(=O)[C@@H](CC(C)C)NC)C(=O)N[C@@H](CC(N)=O)C(=O)N[C@H]5C(=O)N[C@H]3C(=O)N[C@H](C(=O)N[C@H](C(=O)O)c5cc(O)c(CNCP(=O)(O)O)c(O)c5-c5cc3ccc5O)[C@H](O)c3ccc(c(Cl)c3)O4)O[C@H](CO)[C@@H](O)[C@@H]2O)O[C@@H](C)[C@H]1O [telavancin, reference compound]
- lung half-life, nebulized form ([2]; rats, inhalation of nebulized preparation): ca. 21 days
